Measurements reported in US20090264447A1, “Pyrimidine compounds for combating pathogenic fungi and cancer” (BASF SE, priority 2006, published 2009).

These compounds were tested on HeLa B cells (assay: Cell cycle inhibition in HeLa cells (FACS, G0/G1 to G2/M ratio)). Settings: read-out: IC50 (concentration at which 50% of the cells are inhibited in their cell cycle), 20 h incubation with compound.
Assay type: cell-based
Description: HeLa B cells were cultivated in DMEM (Life Technologies Cat. No. 21969-035) containing fetal calf serum (FCS, Life Technologies Cat. No. 10270-106) in 180 cm^2 containers at 37° C., 92% humidity and 7% CO2.
5×10^4 cells per well were added into a 24-well plate. After 20 h, the compounds to be tested were added such that the final concentration was 1×10^−6, 3.3×10^−7, 1.1×10^−7, 3.7×10^−8, 1.2×10^−8 and 1×10^−9 M in a final volume of 500 μl. 6 wells contained only DMSO as control. The treated cells were incubated as described above for a further 20 h. The cells were then examined under the microscope for dead cells. The 24-well plate was then centrifuged at 1200 rpm at 20° C., an acceleration in position 7 and the brake position 5 (Eppendorf centrifuge 5804R) for 5 min.
The supernatant was removed and the cells were lysed with 0.5 ml of RNase buffer (10 mM sodium citrate, 0.1% Nonidet NP40, 50 μg/ml RNase, 10 μg/ml propidium iodide) per well. The plates were then incubated at room temperature in the dark for at least 30 min, and the samples were then transferred into FACS tubes. These were measured in an FACS instrument (Beckton Dickinson) with the following settings:
Instrument settings at the FACS Calibur:
The ratio of cells in the G0/G1 phase to those in the G2/M phase was calculated and compared to the value for the control (DMSO).

**Q.** `COCCCOc1cc(F)c(-c2c(Cl)nc(-n3cncn3)nc2NC(C)C(C)C)c(F)c1` (stereo not drawn) [Example 25] was tested. Which IC50 did it give?
**A.** 42 nM

**Q.** For `CC1CCN(c2nc(-n3cccn3)nc(Cl)c2-c2c(F)cc(OCCCN(C)C(=O)OC(C)(C)C)cc2F)CC1` [Example 11], which IC50 is on record?
**A.** 570 nM

**Q.** Which IC50 does the source give for `COCCCOc1cc(F)c(-c2c(Cl)nc(-n3cncn3)nc2NC(C)C(C)(C)C)c(F)c1` (stereo not drawn) [Example 24] here?
**A.** 42 nM

**Q.** With `CNCCCOc1cc(F)c(-c2c(Cl)nc(C(=O)c3ccc(C)cc3)nc2N2CCCCCC2)c(F)c1` [Example 39] as the compound, how does the IC50 read?
**A.** 580 nM

**Q.** With `COCCCOc1cc(F)c(-c2c(Cl)nc(-n3nccn3)nc2NC(C)C(C)(C)C)c(F)c1` (stereo not drawn) [Example 20] as the compound, how does the IC50 read?
**A.** 27 nM

**Q.** How did the IC50 turn out when `COCCCOc1cc(F)c(-c2c(Cl)nc(-n3ccnn3)nc2NC(C)C(C)C)c(F)c1` (stereo not drawn) [Example 17] was run?
**A.** 32 nM

**Q.** Which IC50 does the source give for `COCCCOc1cc(F)c(-c2c(Cl)nc(C(N)=NOC)nc2NC(C)C(C)(C)C)c(F)c1` (stereo not drawn) [Example 7] here?
**A.** 56 nM

**Q.** For `COCCCOc1cc(F)c(-c2c(Cl)nc(C#N)nc2N2CCC(C)CC2)c(F)c1` [Example 31], which IC50 is on record?
**A.** 120 nM

**Q.** With `COCCCOc1cc(F)c(-c2c(Cl)nc(-n3cccn3)nc2NC(C)C(C)C)c(F)c1` (stereo not drawn) [Example 16] as the compound, how does the IC50 read?
**A.** 26 nM

**Q.** Which IC50 does the source give for `COCCCOc1cc(F)c(-c2c(Cl)nc(C#N)nc2NC(C)C(C)C)c(F)c1` (stereo not drawn) [Example 36] here?
**A.** 59 nM

**Q.** For `CC1CCN(c2nc(C#N)nc(Cl)c2-c2c(F)cc(OCCCN(C)C)cc2F)CC1` [Example 27], which IC50 is on record?
**A.** 220 nM

**Q.** For `CC1CCN(c2nc(-n3cncn3)nc(Cl)c2-c2c(F)cc(OCCCOc3cc(Cl)ncn3)cc2F)CC1` [Example 23], which IC50 is on record?
**A.** 330 nM

**Q.** With `CNCCCOc1cc(F)c(-c2c(Cl)nc(C#N)nc2N2CCCCCC2)c(F)c1` [Example 33] as the compound, how does the IC50 read?
**A.** 480 nM

**Q.** With `COCCCOc1cc(F)c(-c2c(Cl)nc(-n3cccn3)nc2NC(C)C(C)(C)C)c(F)c1` (stereo not drawn) [Example 15] as the compound, how does the IC50 read?
**A.** 32 nM

**Q.** With `CC(Nc1nc(C#N)nc(Cl)c1-c1c(F)cc(OCCCCl)cc1F)C(C)(C)C` (stereo not drawn) [Example 37] as the compound, how does the IC50 read?
**A.** 280 nM

**Q.** For `CC1CCN(c2nc(-n3cccn3)nc(Cl)c2-c2c(F)cc(OCCCOc3cc(Cl)ncn3)cc2F)CC1` [Example 12], which IC50 is on record?
**A.** 470 nM

**Q.** `COCCCOc1cc(F)c(-c2c(Cl)nc(-n3nccn3)nc2NC(C)C(C)C)c(F)c1` (stereo not drawn) [Example 19] was tested. Which IC50 did it give?
**A.** 26 nM

**Q.** Which IC50 does the source give for `CC(C)C(C)Nc1nc(C#N)nc(Cl)c1-c1c(F)cc(OCCCCl)cc1F` (stereo not drawn) [Example 38] here?
**A.** 330 nM

**Q.** How did the IC50 turn out when `CON=C(N)c1nc(Cl)c(-c2c(F)cc(OCCCN(C)C)cc2F)c(N2CCC(C)CC2)n1` [Example 2] was run?
**A.** 27 nM

**Q.** How did the IC50 turn out when `CC1CCN(c2nc(-n3cncn3)nc(Cl)c2-c2c(F)cc(OCCCN(C)C(=O)OC(C)(C)C)cc2F)CC1` [Example 22] was run?
**A.** 290 nM

**Q.** `COCCCOc1cc(F)c(-c2c(Cl)nc(C#N)nc2NC(C)C(C)(C)C)c(F)c1` (stereo not drawn) [Example 35] was tested. Which IC50 did it give?
**A.** 190 nM

**Q.** With `CC1CCN(c2nc(C#N)nc(Cl)c2-c2c(F)cc(OCCCOc3cc(Cl)ncn3)cc2F)CC1` [Example 32] as the compound, how does the IC50 read?
**A.** 570 nM

**Q.** Which IC50 does the source give for `CNCCCOc1cc(F)c(-c2c(Cl)nc(-n3cncn3)nc2N2CCC(C)CC2)c(F)c1` [Example 21] here?
**A.** 18 nM

**Q.** Which IC50 does the source give for `COCCCOc1cc(F)c(-c2c(Cl)nc(-n3ccnn3)nc2NC(C)C(C)(C)C)c(F)c1` (stereo not drawn) [Example 18] here?
**A.** 29 nM
